In patent US12077503B2, “Substituted cyclic amides and their use as herbicides” (FMC CORPORATION, priority 2015, dated 2024):

What was measured:
Assay type in all cases: in vivo
[1] = test system: barnyardgrass (Echinochloa crus-galli); test: Test A preemergence
Outline: (§1)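 Greenhouse, ~10 d after spray; visual injury vs untreated controls, 0 = no effect, 100 = complete control. Preemergence: directed soil spray over planted seeds. Postemergence: plants 2–10 cm, 1–2 leaf stage. Loam/sand blend. Compound in non-phytotoxic solvent with surfactant.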

[2] = test system: ragweed (common ragweed, Ambrosia elatior); test: Test A preemergence
Outline: as §1

[3] = test system: pigweed (Amaranthus retroflexus); test: Test A preemergence
[4] = test system: giant foxtail (Setaria faberii); test: Test A preemergence
Outline: as §1

[5] = test system: ryegrass, Italian (Italian ryegrass, Lolium multiflorum); test: Test A preemergence
Outline: as §1

Kochia (Kochia scoparia) [6] = test: Test A preemergence
Outline: as §1

[7] = test system: sedge, umbrella (small-flower umbrella sedge, Cyperus difformis); test: Test B flooded paddy test; conditions: Flood, 250 g ai/ha
Outline: (§2)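 Evaluation by eye, against controls, occurred 13–15 d post-treatment in a greenhouse, using a 0 (no effect) to 100 (complete control) scale. Application was into the paddy water, 3 cm deep over the soil, on 2-leaf plants.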

[8] = test system: ducksalad (Heteranthera limosa); test: Test B flooded paddy test; conditions: Flood, 250 g ai/ha
Outline: as §2

rice (Oryra sativa) = test: Test B flooded paddy test; conditions: Flood, 250 g ai/ha
Outline: as §2

[9] = test system: barnyardgrass (Echinochloa crus-galli); test: Test B flooded paddy test; conditions: Flood, 250 g ai/ha
Outline: as §2

corn (Zea mays) = test: Test A postemergence
Outline: as §1

[10] = test system: Galium (catchweed bedstraw, Galium aparine); test: Test A postemergence
Outline: as §1

[11] = test system: barnyardgrass (Echinochloa crus-galli); test: Test A postemergence
Outline: as §1

[12] = test system: ragweed (common ragweed, Ambrosia elatior); test: Test A postemergence
Outline: as §1

[13] = test system: blackgrass (Alopecurus myosuroides); test: Test A postemergence
Outline: as §1

[14] = test system: pigweed (Amaranthus retroflexus); test: Test A postemergence
Outline: as §1

[15] = test system: giant foxtail (Setaria faberii); test: Test A postemergence
Outline: as §1

[16] = test system: ryegrass, Italian (Italian ryegrass, Lolium multiflorum); test: Test A postemergence
Outline: as §1

[17] = test system: wheat (Triticum aestivum); test: Test A postemergence
Outline: as §1

Kochia (Kochia scoparia) [18] = test: Test A postemergence
Outline: as §1

[19] = test system: sedge, umbrella (small-flower umbrella sedge, Cyperus difformis); test: Test C flooded paddy test; conditions: Flood; for Plant response rating (scale of 0 to 100), Sedge, Umbrella: 0 is no effect, 100 is complete control
Excerpt: (§3) Plant species in the flooded paddy test consisted of rice (Oryza sativa), sedge, umbrella (small-flower umbrella sedge, Cyperus difformis), ducksalad (Heteranthera limosa), and barnyardgrass (Echinochloa crus-galli) grown to the 2-leaf stage for testing. At time of treatment, test pots were flooded to 3 cm above the soil surface, treated by application of test compounds directly to the paddy water, and then maintained at that water depth for the duration of the test. Treated plants and controls were maintained in a greenhouse for 13 to 15 d, after which time all species were compared to controls and visually evaluated. Plant response ratings, summarized in Table C, are based on a scale of 0 to 100 where 0 is no effect and 100 is complete control. A dash (-) response means no test result.

rice (Oryza sativa) = test: Test C flooded paddy test; conditions: Flood; for Plant response rating (scale of 0 to 100), Rice: 0 is no effect, 100 is complete control
Excerpt: as §3

[20] = test system: ducksalad (Heteranthera limosa); test: Test C flooded paddy test; conditions: Flood; for Plant response rating (scale of 0 to 100), Ducksalad: 0 is no effect, 100 is complete control
Excerpt: as §3

[21] = test system: barnyardgrass (Echinochloa crus-galli); test: Test C flooded paddy test; conditions: Flood; for Plant response rating (scale of 0 to 100), Barnyardgrass: 0 is no effect, 100 is complete control
Excerpt: as §3

[22] = 125 g ai/ha, Preemergence, visual injury after approximately 10 d, 0 to 100 scale where 0 is no effect and 100 is complete control
[23] = 500 g ai/ha, preemergence, 0 to 100 scale, 0 = no effect, 100 = complete control
[24] = 0 to 100 scale where 0 is no effect and 100 is complete control, 13 to 15 d
[25] = 125 g ai/ha, postemergence, visual rating after approx. 10 d, 0 to 100 scale (0 no effect, 100 complete control)
[26] = 500 g ai/ha, postemergence, visual injury, 0 to 100 scale (0 no effect, 100 complete control), approx. 10 d
[27] = 31 g ai/ha, scale 0 to 100 (0 no effect, 100 complete control), 13 to 15 d
[28] = 500 g ai/ha, preemergence, 0 to 100 scale (0 no effect, 100 complete control)
[29] = Preemergence, 125 g ai/ha, 0 to 100 scale (0 no effect, 100 complete control)
[30] = visually evaluated after 13 to 15 d
[31] = Postemergence, 125 g ai/ha, visual injury after approx. 10 d, 0 to 100 scale, 0 no effect, 100 complete control
[32] = Postemergence, 500 g ai/ha, visual injury, 0 to 100 scale (0 no effect, 100 complete control), approx. 10 d

With `CC(C)Oc1cccc(C2CN(C)C(=O)C2C(=O)Nc2ccccc2F)c1` (stereo not shown) [Compound 650] as the molecule, how does the “Plant response rating, Barnyardgrass” value [1, 22] read?
Its value is 100.

What about the “Plant response rating, Barnyardgrass” value [1, 23] of the same molecule?
The value was 100.

What about the “Plant response rating, Ragweed” value [2, 22] of the same molecule?
Its value is 0.

And the “Plant response rating, Ragweed” value [2, 23]?
Its value is 80.

What about the “Plant response rating, Pigweed” value [3, 22] of the same molecule?
Its value is 50.

And the “Plant response rating, Pigweed” value [3, 23]?
Its value is 90.

And the “Plant response rating, Foxtail, Giant” value [4, 22]?
The value was 100.

What about the “Plant response rating, Foxtail, Giant” value [4, 23] of the same molecule?
Its value is 100.

What about the “Plant response rating, Ryegrass, Italian” value [5, 22] of the same molecule?
The value was 40.

And the “Plant response rating, Ryegrass, Italian” value [5, 23]?
Its value is 90.

And the “Plant response rating, Kochia” value (Kochia (Kochia scoparia) [6]; [22])?
Its value is 30.

What about the “Plant response rating, Kochia” value (Kochia (Kochia scoparia) [6]; [23]) of the same molecule?
The value was 70.

What about the “Plant response rating, Sedge, Umbrella” value [7, 24] of the same molecule?
The value was 0.

And the “Plant response rating, Ducksalad” value [8, 24]?
The value was 100.

What about the “Plant response rating, Rice” value (rice (Oryra sativa); [24]) of the same molecule?
Its value is 0.

And the “Plant response rating, Barnyardgrass” value [9, 24]?
Its value is 80.

What about the “Plant response rating, Corn” value (corn (Zea mays); [25]) of the same molecule?
The value was 40.

What about the “Plant response rating, Corn” value (corn (Zea mays); [26]) of the same molecule?
The value was 90.

What about the “Plant response rating, Galium” value [10, 25] of the same molecule?
Its value is 50.

And the “Plant response rating, Galium” value [10, 26]?
The value was 70.

And the “Plant response rating, Barnyardgrass” value [11, 25]?
Its value is 90.

And the “Plant response rating, Barnyardgrass” value [11, 26]?
The value was 90.

And the “Plant response rating, Ragweed” value [12, 25]?
The value was 0.

What about the “Plant response rating, Ragweed” value [12, 26] of the same molecule?
Its value is 30.

And the “Plant response rating, Blackgrass” value [13, 25]?
The value was 50.

And the “Plant response rating, Blackgrass” value [13, 26]?
The value was 50.

And the “Plant response rating, Pigweed” value [14, 25]?
Its value is 0.

And the “Plant response rating, Pigweed” value [14, 26]?
Its value is 0.

And the “Plant response rating, Foxtail, Giant” value [15, 25]?
Its value is 90.

And the “Plant response rating, Foxtail, Giant” value [15, 26]?
The value was 90.

What about the “Plant response rating, Ryegrass, Italian” value [16, 25] of the same molecule?
Its value is 60.

And the “Plant response rating, Ryegrass, Italian” value [16, 26]?
The value was 70.

What about the “Plant response rating, Wheat” value [17, 25] of the same molecule?
Its value is 30.

And the “Plant response rating, Wheat” value [17, 26]?
Its value is 70.

What about the “Plant response rating, Kochia” value (Kochia (Kochia scoparia) [18]; [25]) of the same molecule?
Its value is 0.

What about the “Plant response rating, Kochia” value (Kochia (Kochia scoparia) [18]; [26]) of the same molecule?
The value was 40.

What about the “Plant response rating, Sedge, Umbrella” value [19, 27] of the same molecule?
The value was 0.

What about the “Plant response rating (scale of 0 to 100), Sedge, Umbrella” value ([19]; 62 g ai/ha) of the same molecule?
The value was 0.

And the “Plant response rating (scale of 0 to 100), Sedge, Umbrella” value ([19]; 125 g ai/ha)?
Its value is 0.

And the “Plant response rating (scale of 0 to 100), Sedge, Umbrella” value ([19]; 250 g ai/ha)?
The value was 0.

What about the “Plant response rating, Rice” value (rice (Oryza sativa); [27]) of the same molecule?
Its value is 0.

What about the “Plant response rating (scale of 0 to 100), Rice” value (rice (Oryza sativa); 62 g ai/ha) of the same molecule?
The value was 0.

And the “Plant response rating (scale of 0 to 100), Rice” value (rice (Oryza sativa); 125 g ai/ha)?
Its value is 0.

And the “Plant response rating (scale of 0 to 100), Rice” value (rice (Oryza sativa); 250 g ai/ha)?
Its value is 0.

What about the “Plant response rating, Ducksalad” value [20, 27] of the same molecule?
Its value is 60.

And the “Plant response rating (scale of 0 to 100), Ducksalad” value ([20]; 62 g ai/ha)?
Its value is 70.

What about the “Plant response rating (scale of 0 to 100), Ducksalad” value ([20]; 125 g ai/ha) of the same molecule?
The value was 90.

What about the “Plant response rating (scale of 0 to 100), Ducksalad” value ([20]; 250 g ai/ha) of the same molecule?
Its value is 95.

And the “Plant response rating, Barnyardgrass” value [21, 27]?
The value was 20.

What about the “Plant response rating (scale of 0 to 100), Barnyardgrass” value ([21]; 62 g ai/ha) of the same molecule?
The value was 20.

What about the “Plant response rating (scale of 0 to 100), Barnyardgrass” value ([21]; 125 g ai/ha) of the same molecule?
The value was 60.

And the “Plant response rating (scale of 0 to 100), Barnyardgrass” value ([21]; 250 g ai/ha)?
The value was 75.

Which results are given for `O=C(Nc1cccc(F)c1F)C1C(=S)NCC1c1ccc(Cl)cc1` (stereo not shown) [Compound 1387]?
Plant response rating, Barnyardgrass [1, 28]: 90; Plant response rating, Barnyardgrass [1, 29]: 50; Plant response rating, Ragweed [2, 28]: 0; Plant response rating, Ragweed [2, 29]: 0; Plant response rating, Pigweed [3, 28]: 60; Plant response rating, Pigweed [3, 29]: 0; Plant response rating, Foxtail, Giant [4, 28]: 90; Plant response rating, Foxtail, Giant [4, 29]: 80; Plant response rating, Ryegrass, Italian [5, 28]: 0; Plant response rating, Ryegrass, Italian [5, 29]: 0; Plant response rating, Kochia (Kochia (Kochia scoparia) [6]; [28]): 60; Plant response rating, Kochia (Kochia (Kochia scoparia) [6]; [29]): 30; Plant response rating, Sedge, Umbrella (0 to 100 scale where 0 is no effect and 100 is complete control) [7, 30]: 0; Plant response rating, Ducksalad (0 to 100 scale where 0 is no effect and 100 is complete control) [8, 30]: 0; Plant response rating, Rice (0 to 100 scale where 0 is no effect and 100 is complete control) (rice (Oryra sativa); [30]): 0; Plant response rating, Barnyardgrass (0 to 100 scale where 0 is no effect and 100 is complete control) [9, 30]: 0; Plant response rating, Corn (corn (Zea mays); [31]): 0; Plant response rating, Corn (corn (Zea mays); [32]): 10; Plant response rating, Galium [10, 31]: 30; Plant response rating, Galium [10, 32]: 50; Plant response rating, Barnyardgrass [11, 31]: 60; Plant response rating, Barnyardgrass [11, 32]: 80; Plant response rating, Ragweed [12, 31]: 0; Plant response rating, Ragweed [12, 32]: 30; Plant response rating, Blackgrass [13, 31]: 0; Plant response rating, Blackgrass [13, 32]: 40; Plant response rating, Pigweed [14, 31]: 0; Plant response rating, Pigweed [14, 32]: 60; Plant response rating, Foxtail, Giant [15, 31]: 60; Plant response rating, Foxtail, Giant [15, 32]: 80; Plant response rating, Ryegrass, Italian [16, 31]: 0; Plant response rating, Ryegrass, Italian [16, 32]: 40; Plant response rating, Wheat [17, 31]: 0; Plant response rating, Wheat [17, 32]: 0; Plant response rating, Kochia (Kochia (Kochia scoparia) [18]; [31]): 0; Plant response rating, Kochia (Kochia (Kochia scoparia) [18]; [32]): 50
